Assay results as given in the NIST ThermoML archive (doi:10.1016/j.tca.2017.09.002).

Assay: excess molar enthalpy (molar enthalpy of mixing); xn = mol fraction of the nth substance listed
Details: 1273 K, 105 kPa, Liquid, Calvet calorimetry

[Ni] [nickel] + [Bi]
Details	excess molar enthalpy [kcal/mol]
x1 = 0.0552	-0.0846
x1 = 0.1056	-0.165
x1 = 0.1516	-0.227
x1 = 0.1935	-0.272
x1 = 0.2321	-0.301
x1 = 0.2677	-0.321
x1 = 0.3011	-0.329
x1 = 0.3319	-0.325
